Reference: US10351547B2, “Somatostatin modulators and uses thereof” (priority 2016, dated 2019)
Read-outs that look alike come from different tables or passages of the source.

Target: human SSTR2 (Homo sapiens (Human), UniProt P30874)
Assay: Human SSTR2 intracellular cAMP functional assay for agonists (HTRF)
Format: cell-based
Description: Functional Assay for SSTR2 Agonists
General overview: All five SSTR subtypes are Gi coupled G-protein coupled receptors (GPCRs) that lead to decreases in intracellular cyclic AMP (cAMP) when activated by an agonist. […] Human SSTR2 intracellular cAMP assay is described below. The human SSTR1, 3, 4 and 5 assays follow the same protocol of SSTR2.
The cells are cultured at 37° C., 5% CO2 and 95% humidity. […] The cells are incubated for 20 minutes at 37° C. […] The cells are treated with 50 μL of lysis buffer (HRTF cAMP kit, Cisbio). […] The time-resolved fluorescent signal is read with a Tecan M1000Pro multiplate reader. The intracellular cAMP concentrations are calculated by regression to a standard curve and are plotted vs. the concentration of the compounds of the invention and the EC50 of the compounds are calculated using standard methods. All data manipulations are in GraphPad Prism v6.

[1] = CHO-K1 cells stably expressing human SSTR2, NKH477-stimulated cAMP, read-out: EC50 (inhibition of cAMP activities via human SST2R)

human SSTR2, sequence (P30874 whole entry): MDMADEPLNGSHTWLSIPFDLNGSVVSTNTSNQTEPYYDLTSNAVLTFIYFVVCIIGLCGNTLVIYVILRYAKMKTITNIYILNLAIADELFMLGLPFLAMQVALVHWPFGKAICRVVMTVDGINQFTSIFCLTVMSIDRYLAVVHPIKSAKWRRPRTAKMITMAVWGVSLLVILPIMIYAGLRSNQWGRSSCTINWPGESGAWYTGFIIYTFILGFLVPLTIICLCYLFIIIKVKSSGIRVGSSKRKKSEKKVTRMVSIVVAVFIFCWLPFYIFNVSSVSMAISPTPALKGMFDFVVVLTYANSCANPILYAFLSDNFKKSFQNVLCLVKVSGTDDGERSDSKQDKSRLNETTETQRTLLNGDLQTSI

| SMILES | EC50 [1] | EC50 |
| --- | --- | --- |
| COC(=O)Nc1c(F)cc(F)cc1-c1ccc2ncc(-c3cc(C)cc(F)c3)c(N3CC[C@@H](N)[C@H](OC)C3)c2c1 (relative stereo) [2-235, methyl N-(2-{4-[trans-4-amino-3-methoxypiperidin-1-yl]-3-(3-fluoro-5-methylphenyl)quinolin-6-yl}-4,6-difluorophenyl)carbamate] | < 10 nM | – |
| Cn1cc(-c2ccc3ncc(-c4cc(F)cc(F)c4)c(N4CC[C@H]5NCCO[C@@H]5C4)c3c2)c(N)n1 (relative stereo) [2-245, 4-{4-[trans-octahydro-1H-pyrido[3,4-b]morpholin-6-yl]-3-(3,5-difluorophenyl)quinolin-6-yl}-1-methyl-1H-pyrazol-3-amine] | < 10 nM | – |
| Cc1ccnc(-c2ccc3ncc(-c4cc(F)cc(F)c4)c(N4CC[C@H]5NCCO[C@@H]5C4)c3c2)c1N (relative stereo) [2-247, 2-{4-[trans-octahydro-1H-pyrido[3,4-b]morpholin-6-yl]-3-(3,5-difluorophenyl)quinolin-6-yl}-4-methylpyridin-3-amine] | < 10 nM | – |
| COCCNc1c(C#N)cncc1-c1ccc2ncc(-c3cc(F)cc(F)c3)c(N3CC[C@H]4NCCO[C@@H]4C3)c2c1 (relative stereo) [2-252, 5-{4-[trans-octahydro-1H-pyrido[3,4-b]morpholin-6-yl]-3-(3,5-difluorophenyl)quinolin-6-yl}-4-[(2-methoxyethyl)amino]pyridine-3-carbonitrile] | < 10 nM | – |
| Cn1ncc(-c2ccc3ncc(-c4cc(F)cc(F)c4)c(N4CC[C@H]5NCCO[C@@H]5C4)c3c2)c1C=NO (relative stereo) [2-253, N-[(4-{4-[trans-octahydro-1H-pyrido[3,4-b]morpholin-6-yl]-3-(3,5-difluorophenyl)quinolin-6-yl}-1-methyl-1H-pyrazol-5-yl)methylidene]hydroxylamine] | < 10 nM | – |
| Nc1cncnc1-c1ccc2ncc(-c3cc(F)cc(F)c3)c(N3CC[C@H]4NCCO[C@@H]4C3)c2c1 (relative stereo) [2-255, 4-{4-[trans-octahydro-1H-pyrido[3,4-b]morpholin-6-yl]-3-(3,5-difluorophenyl)quinolin-6-yl}pyrimidin-5-amine] | 10 to 100 nM | – |
| Oc1c(F)cncc1-c1ccc2ncc(-c3cc(F)cc(F)c3)c(N3CC[C@H]4NCCO[C@@H]4C3)c2c1 (relative stereo) [2-256] | 10 to 100 nM | – |
| Cn1cc(-c2ccc3ncc(-c4cc(F)cc(F)c4)c(N4CC[C@H]5NCCO[C@@H]5C4)c3c2)c(C(N)=O)n1 (relative stereo) [2-257, 4-{4-[trans-octahydro-1H-pyrido[3,4-b]morpholin-6-yl]-3-(3,5-difluorophenyl)quinolin-6-yl}-1-methyl-1H-pyrazole-3-carboxamide] | 10 to 100 nM | – |
| Oc1ncc(F)cc1-c1ccc2ncc(-c3cc(F)cc(F)c3)c(N3CC[C@H]4NCCO[C@@H]4C3)c2c1 (relative stereo) [2-259] | < 10 nM | – |
| Cn1cc(-c2ccc3ncc(-c4cc(F)cc(F)c4)c(N4CC[C@H]5NCCO[C@@H]5C4)c3c2)c(C=NO)n1 (relative stereo) [2-260, N-[(4-{4-[trans-octahydro-1H-pyrido[3,4-b]morpholin-6-yl]-3-(3,5-difluorophenyl)quinolin-6-yl}-1-methyl-1H-pyrazol-3-yl)methylidene]hydroxylamine] | < 10 nM | – |
| N#Cc1ccnc(-c2ccc3ncc(-c4cc(F)cc(F)c4)c(N4CC[C@H]5NCCO[C@@H]5C4)c3c2)c1F (relative stereo) [2-261, 2-{4-[trans-octahydro-1H-pyrido[3,4-b]morpholin-6-yl]-3-(3,5-difluorophenyl)quinolin-6-yl}-3-fluoropyridine-4-carbonitrile] | 10 to 100 nM | – |
| Oc1cccnc1-c1ccc2ncc(-c3cc(F)cc(F)c3)c(N3CC[C@H]4NCCO[C@@H]4C3)c2c1 (relative stereo) [2-263, 2-{4-[trans-octahydro-1H-pyrido[3,4-b]morpholin-6-yl]-3-(3,5-difluorophenyl)quinolin-6-yl}pyridin-3-ol] | < 10 nM | – |
| Nc1cc(F)cnc1-c1ccc2ncc(-c3cc(F)cc(F)c3)c(N3CC[C@H]4NCCO[C@@H]4C3)c2c1 (relative stereo) [2-265, 2-{4-[trans-octahydro-1H-pyrido[3,4-b]morpholin-6-yl]-3-(3,5-difluorophenyl)quinolin-6-yl}-5-fluoropyridin-3-amine] | < 10 nM | – |
| CON=Cc1cncc(-c2ccc3ncc(-c4cc(F)cc(F)c4)c(N4CC[C@H]5NCCO[C@@H]5C4)c3c2)c1N (relative stereo) [2-266] | < 10 nM | – |
| Nc1c(-c2ccc3ncc(-c4cc(F)cc(F)c4)c(N4CC[C@H]5NCCO[C@@H]5C4)c3c2)cncc1C1CC1 (relative stereo) [2-267, 3-{4-[trans-octahydro-1H-pyrido[3,4-b]morpholin-6-yl]-3-(3,5-difluorophenyl)quinolin-6-yl}-5-cyclopropylpyridin-4-amine] | 10 to 100 nM | – |
| Nc1c(-c2ccc3ncc(-c4cc(F)cc(F)c4)c(N4CC[C@H]5NCCO[C@@H]5C4)c3c2)cnn1C1COC1 (relative stereo) [2-268, 4-{4-[trans-octahydro-1H-pyrido[3,4-b]morpholin-6-yl]-3-(3,5-difluorophenyl)quinolin-6-yl}-1-(oxetan-3-yl)-1H-pyrazol-5-amine] | 10 to 100 nM | – |
| CC#Cc1cncc(-c2ccc3ncc(-c4cc(F)cc(F)c4)c(N4CC[C@H]5NCCO[C@@H]5C4)c3c2)c1N (relative stereo) [2-272, 3-{4-[trans-octahydro-1H-pyrido[3,4-b]morpholin-6-yl]-3-(3,5-difluorophenyl)quinolin-6-yl}-5-(prop-1-yn-1-yl)pyridin-4-amine] | < 10 nM | – |
| C#Cc1cncc(-c2ccc3ncc(-c4cc(F)cc(F)c4)c(N4CC[C@H]5OCCN[C@@H]5C4)c3c2)c1N (relative stereo) [2-274, 3-{4-[trans-octahydro-1H-pyrido[3,4-b]morpholin-6-yl]-3-(3,5-difluorophenyl)quinolin-6-yl}-5-ethynylpyridin-4-amine] | < 10 nM | – |
| Nc1c(Cl)ccnc1-c1ccc2ncc(-c3cc(F)cc(F)c3)c(N3CC[C@H]4NCCO[C@@H]4C3)c2c1 (relative stereo) [2-275, 2-{4-[trans-octahydro-1H-pyrido[3,4-b]morpholin-6-yl]-3-(3,5-difluorophenyl)quinolin-6-yl}-4-chloropyridin-3-amine] | < 10 nM | – |
| Nc1cccnc1-c1ccc2ncc(-c3cc(F)cc(F)c3)c(N3CC[C@H]4NCCO[C@@H]4C3)c2c1 (relative stereo) [2-283, 2-{4-[trans-octahydro-1H-pyrido[3,4-b]morpholin-6-yl]-3-(3,5-difluorophenyl)quinolin-6-yl}pyridin-3-amine] | 10 to 100 nM | – |
| O=c1[nH]c2cc(-c3ccc4ncc(-c5cc(F)cc(F)c5)c(N5CC[C@H]6NCCO[C@@H]6C5)c4n3)cc(F)c2[nH]1 (relative stereo) [3-10, 6-{8-[trans-octahydro-1H-pyrido[3,4-b]morpholin-6-yl]-7-(3,5-difluorophenyl)-1,5-naphthyridin-2-yl}-4-fluoro-2,3-dihydro-1H-1,3-benzodiazol-2-one] | < 10 nM | – |
| Cc1cc(C)cc(-c2nnc3cc(Cl)c(-c4cc(F)cc(C(N)=O)c4)cc3c2N2CCC(N)CC2)c1 [1-1, 3-[4-(4-aminopiperidin-1-yl)-7-chloro-3-(3,5-dimethylphenyl)cinnolin-6-yl]-5-fluorobenzamide] | < 10 nM | – |
| Cc1cc(C)cc(-c2nnc3cc(Cl)c(-c4cccc(C#N)c4O)cc3c2N2CCC(N)CC2)c1 [1-2, 3-[4-(4-aminopiperidin-1-yl)-7-chloro-3-(3,5-dimethylphenyl)cinnolin-6-yl]-2-hydroxybenzonitrile] | < 10 nM | – |
| Cc1cc(C)cc(-c2nnc3cc(Cl)c(Cl)cc3c2N2CCC(N)CC2)c1 [1-3, 1-[6,7-dichloro-3-(3,5-dimethylphenyl)cinnolin-4-yl]piperidin-4-amine] | – | 100 to 1000 nM |
| Cc1cc(F)cc(-c2nnc3cc(Cl)c(-c4cc(F)cc(C(N)=O)c4)cc3c2N2CCC(N)CC2)c1 [1-4, 3-[4-(4-aminopiperidin-1-yl)-7-chloro-3-(3-fluoro-5-methylphenyl)cinnolin-6-yl]-5-fluorobenzamide] | < 10 nM | – |
| Cc1cc(F)cc(-c2nnc3cc(Cl)c(-c4cccc(C#N)c4O)cc3c2N2CCC(N)CC2)c1 [1-7, 3-[4-(4-aminopiperidin-1-yl)-7-chloro-3-(3-fluoro-5-methylphenyl)cinnolin-6-yl]-2-hydroxybenzonitrile] | < 10 nM | – |
| Cc1cc(F)cc(-c2nnc3cc(Cl)c(-c4ccc5[nH]c(=O)[nH]c5c4)cc3c2N2CCC(N)CC2)c1 [1-8, 5-[4-(4-aminopiperidin-1-yl)-7-chloro-3-(3-fluoro-5-methylphenyl)cinnolin-6-yl]-2,3-dihydro-1H-1,3-benzodiazol-2-one] | < 10 nM | – |
| Cc1cc(F)cc(-c2nnc3cc(Cl)c(-c4cccc5[nH]c(=O)[nH]c45)cc3c2N2CCC(N)CC2)c1 [1-9, 4-[4-(4-aminopiperidin-1-yl)-7-chloro-3-(3-fluoro-5-methylphenyl)cinnolin-6-yl]-2,3-dihydro-1H-1,3-benzodiazol-2-one] | – | 10 to 100 nM |
| N#Cc1cccc(-c2cc3c(N4CCC(N)CC4)c(-c4cc(Cl)cc(Cl)c4)nnc3cc2Cl)c1O [1-11, 3-[4-(4-aminopiperidin-1-yl)-7-chloro-3-(3,5-dichlorophenyl)cinnolin-6-yl]-2-hydroxybenzonitrile] | < 10 nM | – |
| Cc1cc(Cl)cc(-c2nnc3cc(Cl)c(-c4cc(F)cc(C#N)c4O)cc3c2N2CCC(N)CC2)c1 [1-12, 3-[4-(4-aminopiperidin-1-yl)-7-chloro-3-(3-chloro-5-methylphenyl)cinnolin-6-yl]-5-fluoro-2-hydroxybenzonitrile] | < 10 nM | – |
